Laboratory results published in the Kinase Knowledgebase extract (Sharma et al. 2016).

biological target: MAPK14;MAPK11;MAPK12 (human) (UniProt Q16539); test: Inhibition of p38 Kinase Activity

IC50	Structure (SMILES)
< 1 µM	Cc1ccc(C(N)=O)cc1Nc1nc(N[C@H]2CCCC[C@H]2NC(=O)CO[C@H]2C[C@@H](C)CC[C@H]2C(C)C)nc(N(C)CC(C)C)n1
< 10 µM	Cc1ccc2ncn(-c3nc(F)cc(NCCOC(C)C)n3)c2c1
< 10 µM	CC(=O)N1CCN(c2nc(NCC(C)c3ccccc3)nc(Nc3ccc4ncsc4c3)n2)CC1 (stereo unspecified)
< 10 µM	CC(C)NC(=O)N1CC2CC1CN2c1nc(NCC(C)c2ccccc2)nc(Nc2ccc3ncsc3c2)n1 (stereo unspecified)
< 1 µM	Cc1ccc(C(N)=O)cc1Nc1nc(N[C@H]2CCN(Cc3ccccc3C#N)C2)nc(N(C)CC(C)C)n1
< 10 µM	CNCCN(C)c1nc(NCc2ccc(F)cc2F)nc(-n2cnc3ccccc32)n1
< 1 µM	Cc1ccc(C(N)=O)cc1Nc1nc(NCC2CCC3CC2C3(C)C)nc(NC2CCNC2)n1 (stereo unspecified)
< 1 µM	Cc1ccc(C(N)=O)cc1Nc1nc(NC2CCCCC2)nc(N(C)CC(C)(C)C)n1
< 1 µM	Cc1ccc(C(N)=O)cc1Nc1nc(N[C@H]2CCN(Cc3ccc(O)cc3)C2)nc(N(C)CC(C)(C)C)n1
< 10 µM	CC1(C)C2CCC(CNc3nc(Nc4ccc5ncsc5c4)nc(N4CCC(C(N)=O)CC4)n3)C1C2 (stereo unspecified)
< 1 µM	Cc1ccc(C(N)=O)cc1Nc1nc(N[C@H]2CCN(C(=O)c3ccccn3)C2)nc(N(C)CC(C)C)n1
< 1 µM	Cc1ccc(C(N)=O)cc1Nc1nc(NCCC(C)(C)C)nc(N[C@@H]2CCNC2)n1
< 1 µM	Cc1cc2c(cc1Nc1nc(NCC(C)(C)C)nc(N[C@H]3CCNC3)n1)C(=O)NC2
< 1 µM	CCc1ccc(C(N)=O)cc1Nc1nc(NCC(C)(C)C)nc(N[C@H]2CCNC2)n1
< 1 µM	Cc1ccc(C(N)=O)cc1Nc1nc(N)nc(NC[C@@H]2CC[C@H]3C[C@@H]2C3(C)C)n1
< 1 µM	Cc1ccc(C(N)=O)cc1Nc1nc(N[C@@H]2CCN(C(C)C)C2)nc(N(C)CC(C)(C)C)n1
< 1 µM	CNC(=O)c1ccc(C)c(Nc2nc(N[C@H]3CCN(Cc4ccccc4)C3)nc(N(C)CC(C)C)n2)c1
< 1 µM	Cc1ccc(-c2nn(C)c(=O)[nH]2)cc1Nc1nc(N[C@@H]2CCNC2)nc(N(C)CC(C)(C)C)n1
< 1 µM	Cc1ccc(C(N)=O)cc1Nc1nc(N[C@H]2CCN(Cc3ccc(Cl)c(Cl)c3)C2)nc(N(C)CC(C)C)n1
< 1 µM	CONC(=O)c1ccc(C)c(Nc2nc(NCc3cccc(F)c3)nc(N(C)CC(C)(C)C)n2)c1
< 1 µM	Cc1ccc(C(N)=O)cc1Nc1nc(N[C@H]2CCN(Cc3cccc4c3OCO4)C2)nc(N(C)CC(C)C)n1
< 1 µM	CCONC(=O)c1ccc(C)c(Nc2nc(NC)nc(N(C)CC(C)(C)C)n2)c1
< 1 µM	COc1ccccc1CN1CCC(Nc2nc(Nc3cc(C(N)=O)ccc3C)nc(N(C)CC(C)C)n2)C1 (stereo unspecified)

IC50	Structure (SMILES)
< 10 µM	Cc1ccc2ncn(-c3nc(NCCOC(C)C)cc(N(C)C)n3)c2c1
< 10 µM	Cc1c(Nc2nc(NCC(C)c3ccccc3)nc(N3CCNCC3)n2)ccc2ncsc12 (stereo unspecified)
< 10 µM	CC(C)c1nc(Nc2ccc3ncsc3c2)nc(N2CCNCC2)n1
< 1 µM	Cc1ccc(C(N)=O)cc1Nc1nc(N[C@H]2CCN(C3CCCCC3)C2)nc(N(C)CC(C)C)n1
< 10 µM	CC(CNc1nc(Nc2ccc3ncsc3c2)nc(N2CC3CC2CN3C(=O)Cc2ccc(Cl)c(Cl)c2)n1)c1ccccc1 (stereo unspecified)
< 10 µM	CC(C)OCCNc1cc(Cl)nc(-n2cnc3ccccc32)n1
< 1 µM	Cc1ccc(C(N)=O)cc1Nc1nc(NC2CCCC2)nc(N[C@@H]2CCNC2)n1
< 1 µM	COC(=O)Nc1ccc(C)c(Nc2nc(N[C@H]3CCNC3)nc(N(C)CC(C)(C)C)n2)c1
< 1 µM	CNC(=O)c1ccc(C)c(Nc2nc(N[C@H]3CCN(C(C)CO)C3)nc(N(C)CC(C)(C)C)n2)c1 (stereo partly specified)
< 1 µM	Cc1ccc(C(N)=O)cc1Nc1nc(NC[C@@H]2CC[C@H]3C[C@@H]2C3(C)C)nc(N[C@@H]2CCNC2)n1
< 1 µM	Cc1ccc(C(=O)NO)cc1Nc1nc(N[C@H]2CCNC2)nc(N(C)CC(C)(C)C)n1
< 1 µM	Cc1ccc(C(N)=O)cc1Nc1nc(N[C@H]2CCN(Cc3ccc(O)cc3)C2)nc(N(C)CC(C)C)n1
< 1 µM	CCN1CCC[C@@H](Nc2nc(Nc3cc(C(N)=O)ccc3C)nc(N(C)CC(C)(C)C)n2)C1
< 1 µM	Cc1ccc(C(N)=O)cc1Nc1nc(N[C@H]2CCN(Cc3ccccc3)C2)nc(N(C)CC(C)C)n1
< 10 µM	CNC(=O)CCC(=O)N1CCN(c2nc(NCC3CCC4CC3C4(C)C)nc(Nc3ccc4ncsc4c3)n2)CC1 (stereo unspecified)
< 1 µM	Cc1ccc(C(N)=O)cc1N(C)c1nc(NC2CCCC2)nc(N[C@H]2CCNC2)n1
< 1 µM	Cc1ccc(N)cc1Nc1nc(N[C@H]2CCNC2)nc(N(C)CC(C)(C)C)n1
< 1 µM	Cc1ccc(C(N)=O)cc1Nc1nc(N[C@@H]2CCN(C(C)CC(C)C)C2)nc(N(C)CC(C)(C)C)n1 (stereo partly specified)
< 10 µM	CC(CNc1nc(Nc2ccc3ncsc3c2)nc(N2CCN(C(=O)c3ccccc3)CC2)n1)c1ccccc1 (stereo unspecified)
< 10 µM	CC(CNc1nc(Nc2ccc3ncsc3c2)nc(N2CCN(C(=O)c3ccco3)CC2)n1)c1ccccc1 (stereo unspecified)
< 10 µM	CC(CNc1nc(N)nc(Nc2ccc3ncsc3c2)n1)c1ccccc1 (stereo unspecified)
< 1 µM	Cc1ccc(C(N)=O)cc1Nc1nc(NC2CCc3ccccc32)nc(N[C@@H]2CCNC2)n1 (stereo partly specified)
< 1 µM	Cc1ccc(C(=O)NCCC(C)C)cc1Nc1nc(N[C@H]2CCNC2)nc(N(C)CC(C)(C)C)n1

IC50	Structure (SMILES)
< 1 µM	Cc1ccc(C(N)=O)cc1Nc1nc(NCCc2ccc(F)cc2)nc(N[C@H]2CCNC2)n1
< 1 µM	Cc1ccc(C(N)=O)cc1Nc1nc(NC2CCCNC2)nc(N(C)CC(C)C)n1 (stereo unspecified)
< 1 µM	Cc1ccc(-c2n[nH]c(=O)[nH]2)cc1Nc1nc(N[C@@H]2CCNC2)nc(N(C)CC(C)(C)C)n1
< 10 µM	Cc1ccc(Nc2nc(NC[C@@H]3CC[C@H]4C[C@@H]3C4(C)C)nc(N3CCCNCC3)n2)cc1C(N)=O
< 10 µM	c1ccc2c(c1)CCN(c1nc(Nc3ccc4ncsc4c3)nc(N3CCNCC3)n1)C2
< 1 µM	Cc1ccc(C(=O)Nc2cccc(F)c2)cc1Nc1nc(N[C@H]2CCNC2)nc(N(C)CC(C)(C)C)n1
< 1 µM	Cc1ccc(C(N)=O)cc1Nc1nc(O)nc(NCC(C)c2ccccc2)n1 (stereo unspecified)
< 1 µM	Cc1ccc(C(N)=O)cc1Nc1nc(NC2CCN(CCc3ccccc3)C2)nc(N(C)CC(C)C)n1 (stereo unspecified)
< 1 µM	Cc1ccc(C(N)=O)cc1Nc1nc(NCC(C)c2ccccc2)nc(N[C@@H]2CCNC2)n1 (stereo partly specified)
< 10 µM	C[C@H](CNc1nc(Cl)nc(Nc2ccc3ncsc3c2)n1)c1ccccc1
< 1 µM	CNC(=O)c1ccc(C)c(Nc2nc(N[C@H]3CCNC3)nc(N(C)CC3CCCC3)n2)c1
< 1 µM	Cc1ccc(C(=O)NC#N)cc1Nc1nc(N[C@H]2CCNC2)nc(N(C)CC(C)(C)C)n1
< 1 µM	CCONC(=O)c1ccc(C)c(Nc2nc(N[C@@H]3CCNC3)nc(N(C)CC(C)C(F)(F)F)n2)c1 (stereo partly specified)
< 1 µM	Cc1ccc(C(N)=O)cc1Nc1nc(O[C@H]2CCNC2)nc(N(C)CC(C)(C)C)n1
< 1 µM	CCN(CC(C)(C)C)c1nc(Nc2cc(C(N)=O)ccc2C)nc(N[C@H]2CCNC2)n1
< 1 µM	CCONC(=O)c1ccc(C)c(Nc2nc(N(C)CC(C)(C)C)nc(N3CCCNCC3)n2)c1
< 1 µM	Cc1ccc(C(N)=O)cc1Nc1nc(NCC2(c3ccccc3)CC2)nc(N[C@H]2CCNC2)n1
< 10 µM	CNC(=O)C1CCN(c2nc(NC[C@@H]3CC[C@@H]4C[C@H]3C4(C)C)nc(Nc3ccc4ncsc4c3)n2)CC1
< 10 µM	CNc1nc(NCc2ccccc2OC)nc(Nc2ccc3ncsc3c2)n1
< 1 µM	Cc1ccc(C(N)=O)cc1Nc1nc(N[C@H]2CCN(Cc3ccc(C(C)C)cc3)C2)nc(N(C)CC(C)C)n1
< 10 µM	CNCCN(C)c1nc(NCC(C)c2ccccc2)nc(Nc2cccc(Br)c2)n1 (stereo unspecified)
< 1 µM	CNC(=O)c1ccc(C)c(Nc2nc(NC3CCN(Cc4ccccc4)C3)nc(N(C)CC(C)C)n2)c1 (stereo unspecified)
< 30 µM	Cc1ccc(C(N)=O)cc1Oc1nc(NCc2ccccn2)nc(N(C)CC(C)(C)C)n1

IC50	Structure (SMILES)
< 10 µM	C[C@H](CNc1nc(NCCO)nc(Nc2ccc3ncsc3c2)n1)c1ccccc1
< 1 µM	CCC(C)CNc1nc(Nc2cc(C(N)=O)ccc2C)nc(N[C@H]2CCNC2)n1 (stereo partly specified)
< 10 µM	CC(CNc1nc(Nc2ccc3ncsc3c2)nc(N2CC3CC2CN3C(=O)C2CCOC2)n1)c1ccccc1 (stereo unspecified)
< 1 µM	Cc1ccc(C(N)=O)cc1Nc1nc(N[C@H]2CCN(C(C)c3ccccc3)C2)nc(N(C)CC(C)C)n1 (stereo partly specified)
< 10 µM	Cn1ccc2cc(Nc3nc(Cl)nc(NC[C@@H]4CC[C@H]5C[C@@H]4C5(C)C)n3)ccc21
< 1 µM	CONC(=O)c1ccc(C)c(Nc2nc(NCC3CCC(=O)N3)nc(N(C)CC(C)(C)C)n2)c1 (stereo unspecified)
< 30 µM	CONC(=O)c1ccc(C)c(Sc2nc(N[C@@H]3CCNC3)nc(N(C)CC(C)(C)C)n2)c1
< 10 µM	CNCCN(C)c1nc(NCC2CCC3CC2C3(C)C)nc(Nc2ccc3ncsc3c2)n1 (stereo unspecified)
< 10 µM	CC1(C)C2CCC(CNc3cc(Nc4ccc5ncsc5c4)nc(N4CCNCC4)n3)C1C2 (stereo unspecified)
< 10 µM	CC(CNc1nc(Nc2ccc3ncsc3c2)nc(N(C)CCCN(C)C(=O)c2ccccc2)n1)c1ccccc1 (stereo unspecified)
< 1 µM	Cc1ccc(C)c(CN2CC[C@H](Nc3nc(Nc4cc(C(N)=O)ccc4C)nc(N(C)CC(C)C)n3)C2)c1
< 1 µM	Cc1ccc(C(N)=O)cc1Nc1nc(N[C@H]2CCCC[C@H]2O)nc(N(C)CC(C)C)n1
< 10 µM	Clc1nc(Nc2ccc3ncsc3c2)nc(N2CCc3ccccc3C2)n1
< 10 µM	CC(CNc1nc(Nc2ccc3ncsc3c2)nc(N(C)C)n1)c1ccccc1 (stereo unspecified)
< 10 µM	CC1(C)C2CCC(CNc3nc(Nc4ccc5ncoc5c4)nc(N4CCNCC4)n3)C1C2 (stereo unspecified)
< 1 µM	Cc1ccc(C(N)=O)cc1Nc1nc(NC2CCNC2)nc(N(C)CC(C)(C)C)n1 (stereo unspecified)
< 1 µM	CCOC(=O)N1CCC(N(C)c2nc(Nc3cc(C(N)=O)ccc3C)nc(N(C)CC(C)C)n2)C1 (stereo unspecified)
< 1 µM	Cc1ccc(C(N)=O)cc1Nc1nc(NC2CCCC2)nc(NC2CCN(Cc3ccccc3)C2)n1 (stereo unspecified)
< 1 µM	Cc1cccc(CN2CC[C@H](Nc3nc(Nc4cc(C(N)=O)ccc4C)nc(N(C)CC(C)C)n3)C2)c1
< 1 µM	CCNC(=O)c1ccc(C)c(Nc2nc(NCC(C)(C)C)nc(N[C@H]3CCNC3)n2)c1
< 1 µM	CONC(=O)c1ccc(C)c(Nc2nc(N[C@H]3CCN(C(C)C)C3)nc(N(C)CC(C)(C)C)n2)c1
< 1 µM	Cc1ccc(C(N)=O)cc1Nc1nc(NC2CCCCNC2)nc(N(C)CC(C)(C)C)n1 (stereo unspecified)
